Measured values reported in patent publication US20240366589A1, “NHE3-BINDING COMPOUNDS AND METHODS FOR INHIBITING PHOSPHATE TRANSPORT” (Ardelyx, Inc., priority 2013, published 2024).

Tests used:
Rat NHE3 = target: T1, Rat NHE3 (Rattus norvegicus, UniProt P26433); test: Cell-based NHE3 activity under prompt conditions (OK cells, BCECF pH recovery), rat NHE3; settings: prompt conditions
T1 construct: expressed in transfected cells; host or cells: Opossum kidney (OK) cells (ATCC), electroporation
Summary of the method: (§1)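 OK cells electroporated with rat or human NHE3 were loaded with 5 μM BCECF-AM in NH4Cl-HEPES (pH 7.4) for 30 min at room temperature, then acid-loaded 10 min in Na+-free choline-HEPES.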

Human NHE3 = target: T2, Human NHE3 (Homo sapiens, UniProt P48764); test: Cell-based NHE3 activity under prompt conditions (OK cells, BCECF pH recovery), human NHE3; settings: prompt conditions
T2 construct: expressed in transfected cells; host or cells: Opossum kidney (OK) cells (ATCC), electroporation
T2 sequence (P48764 26-834): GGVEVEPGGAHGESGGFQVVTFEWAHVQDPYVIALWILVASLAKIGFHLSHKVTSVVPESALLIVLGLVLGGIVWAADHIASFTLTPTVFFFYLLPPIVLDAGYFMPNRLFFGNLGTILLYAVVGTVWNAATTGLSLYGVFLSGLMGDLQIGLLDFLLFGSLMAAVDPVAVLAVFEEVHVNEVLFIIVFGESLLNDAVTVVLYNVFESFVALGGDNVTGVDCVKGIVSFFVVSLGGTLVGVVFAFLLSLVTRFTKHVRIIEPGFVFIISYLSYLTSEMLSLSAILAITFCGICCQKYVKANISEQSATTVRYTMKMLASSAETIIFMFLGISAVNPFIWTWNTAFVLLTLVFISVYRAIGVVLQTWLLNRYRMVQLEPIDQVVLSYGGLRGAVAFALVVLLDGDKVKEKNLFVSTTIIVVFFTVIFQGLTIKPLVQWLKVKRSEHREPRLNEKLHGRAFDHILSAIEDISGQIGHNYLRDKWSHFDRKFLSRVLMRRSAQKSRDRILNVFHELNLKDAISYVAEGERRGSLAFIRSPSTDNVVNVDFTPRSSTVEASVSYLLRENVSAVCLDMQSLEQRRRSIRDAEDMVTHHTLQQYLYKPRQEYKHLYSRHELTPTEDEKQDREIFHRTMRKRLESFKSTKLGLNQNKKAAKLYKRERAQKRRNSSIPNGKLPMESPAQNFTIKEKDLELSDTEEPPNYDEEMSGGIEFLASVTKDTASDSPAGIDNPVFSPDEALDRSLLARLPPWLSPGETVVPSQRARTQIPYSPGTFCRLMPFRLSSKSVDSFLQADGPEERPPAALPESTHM
Summary of the method: as §1

[1] = test system: absorption of sodium from the intestinal lumen; test: Inhibition of intestinal sodium absorption: urinary sodium (uNa) 16 h after single oral dose in rats; format: in vivo, rat; settings: oral gavage, 16 h post-dose
Summary of the method: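 Eight-week-old Sprague-Dawley rats (n=6) given single oral gavage of compound or water vehicle in the late afternoon, then kept in metabolic cages with chow and water ad libitum. Urine collected over 16 h; sodium quantified by ion chromatography and expressed as % of vehicle mean, compared by one-way ANOVA with Dunnett's test.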

[2] = test system: absorption of sodium from the intestinal lumen; test: Fecal form score (FFS) 16 h after oral dose in rats; format: in vivo, rat; settings: oral gavage, 16 h post-dose, scale 1-5
Summary of the method: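 Eight-week-old Sprague-Dawley rats (n=6) dosed by oral gavage with compound or water vehicle between 4 and 5 PM, then housed in metabolic cages with food and water ad libitum. At 16 h, fecal form scored 1 (normal pellet) to 5 (liquid streams) by two observers; group mean reported.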

[3] = test system: phosphorus and calcium levels in the urine of rats; test: Urinary excretion of phosphate and calcium in rats (16 h overnight urine); format: in vivo, rat; settings: rats, oral gavage, 16 h post-dose

T1 sequence (P26433 29-831): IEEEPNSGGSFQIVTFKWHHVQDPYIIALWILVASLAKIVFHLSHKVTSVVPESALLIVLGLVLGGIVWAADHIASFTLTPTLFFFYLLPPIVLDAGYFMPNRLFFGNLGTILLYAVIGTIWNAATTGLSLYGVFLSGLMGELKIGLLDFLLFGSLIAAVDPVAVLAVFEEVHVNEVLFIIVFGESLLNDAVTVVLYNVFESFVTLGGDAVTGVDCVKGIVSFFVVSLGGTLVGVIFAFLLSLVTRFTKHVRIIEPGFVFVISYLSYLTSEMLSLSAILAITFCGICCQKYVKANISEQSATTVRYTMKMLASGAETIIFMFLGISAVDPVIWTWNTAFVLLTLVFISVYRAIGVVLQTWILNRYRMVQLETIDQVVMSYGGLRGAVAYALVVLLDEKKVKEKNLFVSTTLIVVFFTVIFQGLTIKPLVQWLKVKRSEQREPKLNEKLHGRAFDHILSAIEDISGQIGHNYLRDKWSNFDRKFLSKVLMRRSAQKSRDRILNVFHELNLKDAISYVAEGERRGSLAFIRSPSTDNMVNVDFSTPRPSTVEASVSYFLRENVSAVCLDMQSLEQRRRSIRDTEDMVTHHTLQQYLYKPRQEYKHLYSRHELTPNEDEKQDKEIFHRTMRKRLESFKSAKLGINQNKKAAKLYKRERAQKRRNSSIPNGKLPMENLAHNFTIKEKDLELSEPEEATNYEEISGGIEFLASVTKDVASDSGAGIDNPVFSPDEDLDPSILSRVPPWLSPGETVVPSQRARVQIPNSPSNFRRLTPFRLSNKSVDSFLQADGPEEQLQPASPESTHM

Question: For CN1Cc2c(Cl)cc(Cl)cc2[C@H](c2cccc(S(=O)(=O)NCCOCCOCCNC(=O)COCC(=O)NCCOCCOCCNS(=O)(=O)c3ccc(O[C@H]4c5ccccc5C[C@@H]4N4CCCCC4)cc3)c2)C1 [compound 97], which “Prompt Rat NHE3 pIC50” value (Rat NHE3) is on record?
Answer: The value was 7.60.

Question: What about the “Prompt Human NHE3 pIC50” value (Human NHE3) of the same molecule?
Answer: The value was 8.50.

Question: What about the “Urine Na % of control” value ([1]; dose 10 mg/kg) of the same molecule?
Answer: The value was 64%.

Question: What about the “Fecal Form Score average” value ([2]; dose 10 mg/kg) of the same molecule?
Answer: Its value is 1.

Question: And the “Urine P % of control” value ([3]; dose 10 mg/kg)?
Answer: The value was 78%.

Question: NCCOCCOCCNS(=O)(=O)c1ccc(O[C@H]2c3ccccc3C[C@@H]2N2CCCCC2)cc1 [compound 60] was tested. Which “Prompt Rat NHE3 pIC50” value (Rat NHE3) did it give?
Answer: Its value is 6.35.

Question: And the “Prompt Human NHE3 pIC50” value (Human NHE3)?
Answer: Its value is 7.10.

Question: And the “Urine Na % of control” value ([1]; dose 10 mg/kg)?
Answer: Its value is 67%.

Question: And the “Fecal Form Score average” value ([2]; dose 10 mg/kg)?
Answer: The value was 1.

Question: What about the “Urine P % of control” value ([3]; dose 10 mg/kg) of the same molecule?
Answer: Its value is 92%.

Question: For O=C(NCCCCNC(=O)NCCOCCOCCNS(=O)(=O)c1ccc(O[C@H]2c3cc(F)ccc3C[C@@H]2N2CCCCC2)cc1)NCCOCCOCCNS(=O)(=O)c1ccc(O[C@H]2c3cc(F)ccc3C[C@@H]2N2CCCCC2)cc1 [compound 140], which “Prompt Rat NHE3 pIC50” value (Rat NHE3) is on record?
Answer: Its value is 8.90.

Question: And the “Prompt Human NHE3 pIC50” value (Human NHE3)?
Answer: The value was 7.70.

Question: And the “Urine Na % of control” value ([1]; dose 10 mg/kg)?
Answer: Its value is 110%.

Question: And the “Fecal Form Score average” value ([2]; dose 10 mg/kg)?
Answer: Its value is 1.

Question: And the “Urine P % of control” value ([3]; dose 10 mg/kg)?
Answer: Its value is 121%.

Question: For C[C@@H](O)[C@H](NC(=O)NC(CCC(=O)NCCOCCOCCNS(=O)(=O)c1cccc([C@@H]2CN(C)Cc3c(Cl)cc(Cl)cc32)c1)(CCC(=O)NCCOCCOCCNS(=O)(=O)c1cccc([C@@H]2CN(C)Cc3c(Cl)cc(Cl)cc32)c1)CCC(=O)NCCOCCOCCNS(=O)(=O)c1cccc([C@@H]2CN(C)Cc3c(Cl)cc(Cl)cc32)c1)C(N)=O [compound 159], which “Prompt Rat NHE3 pIC50” value (Rat NHE3) is on record?
Answer: Its value is 7.20.

Question: And the “Prompt Human NHE3 pIC50” value (Human NHE3)?
Answer: The value was 7.30.

Question: What about the “Urine Na % of control” value ([1]; dose 3 mg/kg) of the same molecule?
Answer: The value was 27%.

Question: What about the “Fecal Form Score average” value ([2]; dose 3 mg/kg) of the same molecule?
Answer: Its value is 2.

Question: And the “Urine P % of control” value ([3]; dose 3 mg/kg)?
Answer: The value was 55%.

Question: Which “Prompt Rat NHE3 pIC50” value (Rat NHE3) does the source give for CN(C)[C@H]1Cc2ccc(Cl)cc2[C@@H]1Oc1ccc(S(=O)(=O)NCCOCCOCCNC(=O)NCCCCNC(=O)NCCOCCOCCNS(=O)(=O)c2ccc(O[C@H]3c4cc(Cl)ccc4C[C@@H]3N(C)C)cc2)cc1 [compound 116] here?
Answer: Its value is under 5.00.

Question: And the “Prompt Human NHE3 pIC50” value (Human NHE3)?
Answer: The value was 8.30.

Question: What about the “Urine Na % of control” value ([1]; dose 10 mg/kg) of the same molecule?
Answer: The value was 84%.

Question: What about the “Fecal Form Score average” value ([2]; dose 10 mg/kg) of the same molecule?
Answer: The value was 1.

Question: What about the “Urine P % of control” value ([3]; dose 10 mg/kg) of the same molecule?
Answer: Its value is 130%.

Question: What does the source list for O=C(CCOCCOCCOCCOCCOCCC(=O)NCCOCCOCCNS(=O)(=O)c1ccc(OC2c3ccccc3CC2N2CCCCC2)cc1)NCCOCCOCCNS(=O)(=O)c1ccc(OC2c3ccccc3CC2N2CCCCC2)cc1 (racemic) [compound 54]?
Answer: Prompt Rat NHE3 pIC50 (Rat NHE3): 7.30; Prompt Human NHE3 pIC50 (Human NHE3): 7.50; Urine Na % of control ([1]; dose 10 mg/kg): 75%; Fecal Form Score average ([2]; dose 10 mg/kg): 1; Urine P % of control ([3]; dose 10 mg/kg): 72%

Question: Which results are given for CN(CC(=O)NCCOCCOCCNC(=O)NCCOCCOCCOCCOc1cccc(-c2nc(NC(=N)N)nc3ccc(Cl)cc23)c1)CC(=O)NCCOCCOCCNC(=O)NCCOCCOCCOCCOc1cccc(-c2nc(NC(=N)N)nc3ccc(Cl)cc23)c1 [compound 43]?
Answer: Prompt Rat NHE3 pIC50 (Rat NHE3): 7.50; Prompt Human NHE3 pIC50 (Human NHE3): 7.70; Urine Na % of control ([1]; dose 10 mg/kg): 70%; Fecal Form Score average ([2]; dose 10 mg/kg): 1; Urine P % of control ([3]; dose 10 mg/kg): 101%

Question: What does the source list for NCCOCCOCCOc1ccc(-c2nc(N=C(N)N)nc3ccc(Cl)cc23)cc1 [compound 11]?
Answer: Prompt Rat NHE3 pIC50 (Rat NHE3): 6.95; Prompt Human NHE3 pIC50 (Human NHE3): 6.80; Urine Na % of control ([1]; dose 10 mg/kg): 60%; Urine Na % of control ([1]; dose 30 mg/kg): 29%; Fecal Form Score average ([2]; dose 10 mg/kg): 1; Fecal Form Score average ([2]; dose 30 mg/kg): 2; Urine P % of control ([3]; dose 10 mg/kg): 64%; Urine P % of control ([3]; dose 30 mg/kg): 96%
